Measured values reported in patent US20070128217A1 (priority 2003, published 2007).

Columns and labels:
[1] = system: antibodies in sera from SARS patients (sera 1a, 1b, 2, 6, 37, 62, London, SARS-yellow, SARS-green); type: binding, human; design: Binding of serum 6 to linear peptides of protein X1 of SARS-CoV Urbani / Binding of serum 37 to linear peptides of protein X1 of SARS-CoV Urbani / Binding of serum 6 to looped/cyclic peptide (PEPSCAN-ELISA) / Binding of serum 37 to looped/cyclic peptide (PEPSCAN-ELISA) / Binding of serum 37 to looped/cyclic peptides of protein X1 of SARS-CoV Urbani / Binding of serum 6 to linear peptides of protein X2 / Binding of serum 37 to linear peptides of protein X2 / Binding of serum 37 to looped/cyclic peptides of protein X2 of SARS-CoV Urbani / Binding of serum 6 to linear peptides of protein M of SARS-CoV Urbani / Binding of serum 37 to linear peptides of protein M of SARS-CoV Urbani / Binding of serum 6 to looped/cyclic peptides of protein M of SARS-CoV Urbani / Binding of serum 37 to looped/cyclic peptides of protein M of SARS-CoV Urbani / Binding of serum 6 to linear peptides of protein X3 of SARS-CoV Urbani / Binding of serum 37 to linear peptides of protein X3 of SARS-CoV Urbani / Binding of serum 37 to looped/cyclic peptides of protein X3 of SARS-CoV Urbani / Binding of serum 6 to linear peptides of protein X4 of SARS-CoV Urbani / Binding of serum 37 to linear peptides of protein X4 of SARS-CoV Urbani / Binding of serum 37 to looped/cyclic peptides of protein X4 of SARS-CoV Urbani / Binding of serum 6 to linear peptides of protein X5 of SARS-CoV Urbani / Binding of serum 37 to linear peptides of protein X5 of SARS-CoV Urbani / Binding of serum 37 to looped/cyclic peptides of protein X5 of SARS-CoV Urbani / Binding of serum 6 to linear peptides of protein N of SARS-CoV Urbani / Binding of serum 37 to linear peptides of protein N of SARS-CoV Urbani / Binding of serum 6 to linear peptide (PEPSCAN-ELISA) / Binding of serum 1a to looped/cyclic peptides of protein N of SARS-CoV Urbani / Binding of serum 1b to looped/cyclic peptides of protein N of SARS-CoV Urbani / Binding of serum 2 to looped/cyclic peptides of protein N of SARS-CoV Urbani / Binding of serum 6 to looped/cyclic peptides of protein N of SARS-CoV Urbani / Binding of serum 37 to looped/cyclic peptides of protein N of SARS-CoV Urbani / Binding of serum 62 to looped/cyclic peptides of protein N of SARS-CoV Urbani / Binding of serum London to looped/cyclic peptides of protein N of SARS-CoV Urbani / Binding of serum SARS-green to looped/cyclic peptides of protein N of SARS-CoV Urbani: unit not given here
[2] = system: control sera (pooled serum of ten healthy LUMC hospital workers; commercial negative donor pooled serum from the Dutch bloodbank); type: binding, human; design: Binding of Control serum LUMC to linear peptides / Binding of Control serum Blood-bank to linear peptides / Binding of Control serum LUMC to looped peptides / Binding of Control Serum Blood-Bank to Looped peptides / Binding of Control serum LUMC to linear peptides of the protein M of SARS-CoV Urbani / Binding of Control serum Blood-bank to linear peptides of the protein M of SARS-CoV Urbani / Binding of Control serum LUMC to looped peptides of the protein M of SARS-CoV Urbani / Binding of Control Serum Blood-Bank to Looped peptides of the protein M of SARS-CoV Urbani: unit not given here
[3] = system: rabbit serum obtained by immunizing a rabbit with the SARS-CoV strain Frankfurt 1; type: binding; design: Binding of a rabbit serum to linear peptides / Binding of a rabbit serum to looped peptides / Rabbit serum linear peptides / Rabbit serum looped peptides / Binding of a rabbit serum to linear peptides of protein N of SARS-CoV Urbani (Rabbit serum linear peptides) / Binding of a rabbit serum to looped/cyclic peptides of protein N of SARS-CoV Urbani (Rabbit serum looped peptides): unit not given here

With ALIARCWYLHEGHQT the “Binding of serum 1a to linear peptides of protein X5 of SARS-CoV Urbani” value [1] was 0.6, the “Binding of serum 1a to looped/cyclic peptides of protein X5 of SARS-CoV Urbani” value [1] was 0.6 and the “Binding of serum 1b to linear peptides of protein X5 of SARS-CoV Urbani” value [1] was 0.5. The “Binding of serum 1b to looped/cyclic peptides of protein X5 of SARS-CoV Urbani” value [1] was 0.1, the “Binding of serum 2 to linear peptides of protein X5 of SARS-CoV Urbani” value [1] was 0.6 and the “Binding of serum 2 to looped/cyclic peptides of protein X5 of SARS-CoV Urbani” value [1] was 0.5. The “Binding of serum 6 to linear peptides of protein X5 of SARS-CoV Urbani” value [1] was 0.5, the “Binding of serum 6 to looped/cyclic peptides of protein X5 of SARS-CoV Urbani” value [1] was 0.3 and the “Binding of serum 37 to linear peptides of protein X5 of SARS-CoV Urbani” value [1] was 0.7. The “Binding of serum 37 to looped/cyclic peptides of protein X5 of SARS-CoV Urbani” value [1] was 0.4, the “Binding of serum 62 to linear peptides of protein X5 of SARS-CoV Urbani” value [1] was 0.7 and the “Binding of serum 62 to looped/cyclic peptides of protein X5 of SARS-CoV Urbani” value [1] was 0.4. For the same sequence, the “Binding of serum London to linear peptides of protein X5 of SARS-CoV Urbani” value [1] was 0.6, the “Binding of serum London to looped/cyclic peptides of protein X5 of SARS-CoV Urbani” value [1] was 0.1 and the “Binding of serum SARS-green to linear peptides of protein X5 of SARS-CoV Urbani” value [1] was 0.7. For the same sequence, the “Binding of serum SARS-green to looped/cyclic peptides of protein X5 of SARS-CoV Urbani” value [1] was 0.0, the “Binding of serum SARS-yellow to linear peptides of protein X5 of SARS-CoV Urbani” value [1] was 0.2 and the “Binding of serum SARS-yellow to looped/cyclic peptides of protein X5 of SARS-CoV Urbani” value [1] was 0.0. The “Binding of Control Serum Blood-Bank to Looped peptides” value [2] was 0.4, the “Binding of Control serum Blood-bank to linear peptides” value [2] was 0.6 and the “Binding of Control serum LUMC to linear peptides” value [2] was 0.4. For the same sequence, the “Binding of Control serum LUMC to looped peptides” value [2] was 0.1, the “Rabbit serum linear peptides” value [3] was 0.6 and the “Rabbit serum looped peptides” value [3] was 0.0.
In the case of YRIGNYKLNTDHAGS, the “Binding of serum 1a to linear peptides of protein M of SARS-CoV Urbani” value [1] is reported as 0.7, the “Binding of serum 1a to looped/cyclic peptides of protein M of SARS-CoV Urbani” value [1] is reported as 0.8 and the “Binding of serum 1b to linear peptides of protein M of SARS-CoV Urbani” value [1] is reported as 0.6. For the same sequence, the “Binding of serum 1b to looped/cyclic peptides of protein M of SARS-CoV Urbani” value [1] was 0.6, the “Binding of serum 2 to linear peptides of protein M of SARS-CoV Urbani” value [1] was 0.5 and the “Binding of serum 2 to looped/cyclic peptides of protein M of SARS-CoV Urbani” value [1] was 0.5. For the same sequence, the “Binding of serum 6 to linear peptides of protein M of SARS-CoV Urbani” value [1] was 0.2, the “Binding of serum 6 to looped/cyclic peptides of protein M of SARS-CoV Urbani” value [1] was 0.8 and the “Binding of serum 37 to linear peptides of protein M of SARS-CoV Urbani” value [1] was 0.8. The “Binding of serum 37 to looped/cyclic peptides of protein M of SARS-CoV Urbani” value [1] was 0.7, the “Binding of serum 62 to linear peptides of protein M of SARS-CoV Urbani” value [1] was 0.7 and the “Binding of serum 62 to looped/cyclic peptides of protein M of SARS-CoV Urbani” value [1] was 0.6. The “Binding of serum London to linear peptides of protein M of SARS-CoV Urbani” value [1] was 0.5, the “Binding of serum London to looped/cyclic peptides of protein M of SARS-CoV Urbani” value [1] was 0.4 and the “Binding of serum SARS-green to linear peptides of protein M of SARS-CoV Urbani” value [1] was 0.2. The “Binding of serum SARS-green to looped/cyclic peptides of protein M of SARS-CoV Urbani” value [1] was 0.3, the “Binding of serum SARS-yellow to linear peptides of protein M of SARS-CoV Urbani” value [1] was 0.1 and the “Binding of serum SARS-yellow to looped/cyclic peptides of protein M of SARS-CoV Urbani” value [1] was 0.6. For the same sequence, the “Binding of Control Serum Blood-Bank to Looped peptides of the protein M of SARS-CoV Urbani” value [2] was 0.6, the “Binding of Control serum Blood-bank to linear peptides of the protein M of SARS-CoV Urbani” value [2] was 0.6 and the “Binding of Control serum LUMC to linear peptides of the protein M of SARS-CoV Urbani” value [2] was 0.3. For the same sequence, the “Binding of Control serum LUMC to looped peptides of the protein M of SARS-CoV Urbani” value [2] was 0.6, the “Rabbit serum linear peptides” value [3] was 0.6 and the “Rabbit serum looped peptides” value [3] was 0.1.
